The source of these data is ChEMBL document CHEMBL1150257, “Synthesis and cytotoxicity of a salicylihalamide A analogue” (2008).

The term GI50 denotes the concentration at which growth is held to half of that of the control. A higher GI50 goes with lower sensitivity of the cells.

Molecules are shown by their SMILES.

Common to all, as to assay type: functional
One assay deals with MCF7. Briefly: Cytotoxicity against human MCF7 cells.
Another assay deals with SK-MEL-5. Briefly: Cytotoxicity against human SK-MEL-5 cells.
Another assay relates to MDA-MB-435. Briefly: Cytotoxicity against human MDA-MB-435 cells.
The subject of the next assay is SR. Kind of assay: Cytotoxicity against human SR cells.

Turning to `CC/C=C\C=C/C(=O)N/C=C/CC1Cc2cccc(O)c2C(=O)O1` (racemic), the concentration for 50% growth inhibition (GI50) in the assay with MCF7 amounted to 49 µM; in the assay with SK-MEL-5, 27 µM; in the assay on MDA-MB-435, 11 µM; in the assay on SR, 2000 nM.

The compound `CC/C=C\C=C/C(=O)N/C=C/C[C@H]1C[C@@H](O)[C@@H](C)C/C=C/Cc2cccc(O)c2C(=O)O1` [SALICYLIHALAMIDE A] registered a GI50 with SK-MEL-5 of 0.007 µM.
